ChEMBL document CHEMBL4145442, “Novel LCK/FMS inhibitors based on phenoxypyrimidine scaffold as potential treatment for inflammatory disorders” (Eur J Med Chem, 2017)

Assays:
[1] = target: T1, Tyrosine-protein kinase Lck (Homo sapiens, UniProt P06239); experiment: Inhibition of LCK (unknown origin) assessed as remaining activity at 1 x 10^-5 M after 120 mins in presence of 33P-ATP (reference value: […]% to […]%); conditions: at 10 µM
Target sequence in this assay (P06239 2-509 limits assumed): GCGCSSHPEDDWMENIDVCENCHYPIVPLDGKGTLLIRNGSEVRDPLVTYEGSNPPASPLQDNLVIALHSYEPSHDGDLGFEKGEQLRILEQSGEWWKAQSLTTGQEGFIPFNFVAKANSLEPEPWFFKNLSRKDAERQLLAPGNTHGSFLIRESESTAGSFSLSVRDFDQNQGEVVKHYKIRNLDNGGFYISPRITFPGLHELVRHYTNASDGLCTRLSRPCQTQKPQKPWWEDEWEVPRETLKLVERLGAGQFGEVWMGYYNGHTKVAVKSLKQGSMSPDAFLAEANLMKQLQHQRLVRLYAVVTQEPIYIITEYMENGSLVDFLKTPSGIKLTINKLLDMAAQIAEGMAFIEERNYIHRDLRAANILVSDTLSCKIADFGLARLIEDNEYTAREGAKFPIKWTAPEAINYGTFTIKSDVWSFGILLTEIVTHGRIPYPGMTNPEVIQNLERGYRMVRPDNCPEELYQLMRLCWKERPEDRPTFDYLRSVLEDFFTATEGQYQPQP

[2] = target: T1, Tyrosine-protein kinase Lck; experiment: Inhibition of LCK (unknown origin) assessed as remaining activity at 3 x 10^-5 M after 120 mins in presence of 33P-ATP (reference value: […]% to […]%); conditions: at 30 µM
Target sequence in this assay (P06239 2-509 limits assumed): as above

[3] = target: T1, Tyrosine-protein kinase Lck; experiment: Inhibition of LCK (unknown origin) after 120 mins in presence of 33P-ATP
Target sequence in this assay (P06239 whole entry): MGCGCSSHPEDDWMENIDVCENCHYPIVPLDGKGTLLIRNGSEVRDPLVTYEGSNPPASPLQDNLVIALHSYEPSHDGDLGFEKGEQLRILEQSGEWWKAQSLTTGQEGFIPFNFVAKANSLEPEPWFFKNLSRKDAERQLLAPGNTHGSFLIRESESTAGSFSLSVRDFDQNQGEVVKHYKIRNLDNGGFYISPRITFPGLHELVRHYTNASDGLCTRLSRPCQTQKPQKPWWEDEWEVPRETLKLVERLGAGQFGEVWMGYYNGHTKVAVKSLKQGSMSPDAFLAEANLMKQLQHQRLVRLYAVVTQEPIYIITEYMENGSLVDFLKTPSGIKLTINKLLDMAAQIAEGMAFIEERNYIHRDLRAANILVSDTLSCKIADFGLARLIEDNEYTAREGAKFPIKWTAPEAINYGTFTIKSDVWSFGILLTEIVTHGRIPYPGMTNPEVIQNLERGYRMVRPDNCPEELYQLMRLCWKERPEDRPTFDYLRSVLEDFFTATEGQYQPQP

[4] = target: T1, Tyrosine-protein kinase Lck; experiment: Inhibition of LCK (unknown origin) assessed as remaining activity at […] x 10^-6 M after 120 mins in presence of 33P-ATP (reference value: […]% to […]%)
Target sequence in this assay (P06239 2-509 limits assumed): as the sequence (P06239 2-509 limits assumed) above

[5] = target: T1, Tyrosine-protein kinase Lck; experiment: Inhibition of LCK (unknown origin) assessed as remaining activity at 3.33 x 10^-6 M after 120 mins in presence of 33P-ATP (reference value: […]% to […]%); conditions: at 3.33 µM
Target sequence in this assay (P06239 2-509 limits assumed): as above

[6] = target: T1, Tyrosine-protein kinase Lck; experiment: Inhibition of LCK (unknown origin) assessed as remaining activity at 3.7 x 10^-7 M after 120 mins in presence of 33P-ATP (reference value: […]% to […]%); conditions: at 0.37 µM
Target sequence in this assay (P06239 2-509 limits assumed): as above

[7] = target: Macrophage colony-stimulating factor 1 receptor (Homo sapiens, UniProt P07333); experiment: Inhibition of FMS (unknown origin) after 120 mins in presence of 33P-ATP
RAW264.7 = experiment: Inhibition of LPS-induced NO production in mouse RAW264.7 cells after 24 hrs by Griess assay; format: functional, cell-based; conditions: RAW264.7, 24 h
[8] = Cytotoxicity against mouse RAW264.7 cells after 4 hrs by MTT assay; format: cell-based; conditions: mouse, RAW264.7 cells

Macrophage colony-stimulating factor 1 receptor, sequence (P07333 whole entry): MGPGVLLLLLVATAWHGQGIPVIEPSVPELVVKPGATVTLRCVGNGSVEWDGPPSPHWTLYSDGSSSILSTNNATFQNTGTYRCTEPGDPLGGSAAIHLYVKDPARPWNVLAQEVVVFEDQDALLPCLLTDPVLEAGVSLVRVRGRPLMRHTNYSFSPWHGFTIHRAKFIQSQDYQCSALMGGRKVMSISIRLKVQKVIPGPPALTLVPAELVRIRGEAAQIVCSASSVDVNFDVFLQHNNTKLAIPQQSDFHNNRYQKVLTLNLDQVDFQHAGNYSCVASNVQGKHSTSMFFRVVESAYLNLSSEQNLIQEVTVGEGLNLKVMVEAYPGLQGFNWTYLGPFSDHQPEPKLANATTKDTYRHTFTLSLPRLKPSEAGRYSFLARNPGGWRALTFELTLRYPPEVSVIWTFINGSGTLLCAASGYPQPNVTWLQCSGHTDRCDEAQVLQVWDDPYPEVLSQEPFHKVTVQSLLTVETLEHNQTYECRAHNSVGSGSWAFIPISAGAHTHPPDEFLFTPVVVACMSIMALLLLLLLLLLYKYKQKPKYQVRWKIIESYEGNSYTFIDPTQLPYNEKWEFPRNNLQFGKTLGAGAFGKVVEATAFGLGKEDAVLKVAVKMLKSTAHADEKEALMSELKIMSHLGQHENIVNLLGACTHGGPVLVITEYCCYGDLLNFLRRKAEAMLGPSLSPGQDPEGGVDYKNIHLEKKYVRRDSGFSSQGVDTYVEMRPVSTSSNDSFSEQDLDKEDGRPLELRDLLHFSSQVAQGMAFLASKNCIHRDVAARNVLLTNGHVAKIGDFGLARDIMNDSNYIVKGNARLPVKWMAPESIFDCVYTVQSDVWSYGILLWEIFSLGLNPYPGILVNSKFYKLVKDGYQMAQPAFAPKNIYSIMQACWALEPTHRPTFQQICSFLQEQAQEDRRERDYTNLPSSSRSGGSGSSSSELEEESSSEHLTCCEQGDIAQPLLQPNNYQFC

Compound | Activity [1] [%] | Activity [2] [%] | IC50 [3] [µM] | Activity [4] [%] | Activity [5] [%] | Activity [6] [%] | IC50 [7] [µM] | IC50 (RAW264.7) [µM] | IC80 at 4 h [8] [µM]
COc1cc(NC(=O)Nc2cnc(Nc3ccc(N4CCOCC4)cc3)nc2Oc2ccc(F)cc2)cc(OC)c1 | 68.9 to 70.1 | 52.5 to 61.6 | 71.1 | 84 to 87.5 | 77.8 to 81.3 | 83.2 to 90.3 |  |  | 
COc1ccc(NC(=O)Nc2cnc(Nc3cc(OC)cc(OC)c3)nc2Oc2ccc(C)cc2OC)cc1 | 92.4 to 97.2 | 90.7 to 95.4 | > 100 | 98 to 102 | 96.5 to 99.7 | 96.3 to 102 |  |  | 
COc1cc(/C=N/c2cnc(Nc3ccc(N4CCOCC4)cc3)nc2Oc2cccc(OC)c2)cc(OC)c1 | 25.4 to 28.1 | 24 to 26.5 | 1.86 | 52.6 to 55.2 | 34.8 to 36.1 | 74.3 to 74.7 | 0.0086 |  | 
COc1cc(NC(=O)Nc2cnc(Nc3ccc(N4CCOCC4)cc3)nc2Oc2ccc(C(F)(F)F)cc2)cc(OC)c1 | 78.1 to 84.5 | 74.2 to 74.8 | > 100 | 89.3 to 89.9 | 83.8 to 90.7 | 96 to 100 |  |  | 
COc1cc(Nc2ncc(NC(=O)Nc3c(Cl)cccc3Cl)c(Oc3ccc(C)cc3OC)n2)cc(OC)c1 | 72.6 to 81.8 | 61.5 to 61.7 | 58.4 | 94 to 95.5 | 85.2 to 88.2 | 93.7 to 96 |  |  | 
C/C(=N/N)NCCCC[C@H](N)C(=O)O |  |  |  |  |  |  |  | 28.3 | 
COc1ccc(OC)c(/C=N/c2cnc(Nc3ccc(N4CCOCC4)cc3)nc2Oc2ccc(C)cc2OC)c1 | 12.5 to 14.4 | 8.37 to 10.1 | 0.11 | 19.9 to 21.8 | 12.8 to 13.1 | 38.7 to 38.9 |  | > 1 | > 1
COc1cc(C)ccc1Oc1nc(Nc2ccc(N3CCOCC3)cc2)ncc1NCc1cccc(OC(F)(F)F)c1 | 61.3 to 65.9 | 44.9 to 45.8 | 22.1 | 83.5 to 91.3 | 68.8 to 76.6 | 92.7 to 92.9 |  |  | 
COc1cc(C)ccc1Oc1nc(Nc2ccc(N3CCOCC3)cc2)ncc1/N=C/c1cc(Cl)cc(Cl)c1 | 37.1 | 38.9 to 40.7 | 0.0065 | 26.7 to 26.9 | 32.8 to 33.6 | 35.8 to 36.1 |  | > 1 | 0.987
COc1cc(C)ccc1Oc1nc(Nc2ccc(N3CCOCC3)cc2)ncc1/N=C/c1cccc(OC(F)(F)F)c1 | 49 to 54.7 | 41.7 to 50.1 | 0.0335 | 26.8 to 27.9 | 41.1 to 43.7 | 39.2 to 39.8 |  | > 20 | < 5
COc1cc(NC(=O)Nc2cnc(Nc3ccc(N4CCOCC4)cc3)nc2Oc2cccc(OC)c2)cc(OC)c1 | 42.1 to 49.3 | 62.1 to 63.2 | 7.97 | 64.7 to 71 | 57.6 to 66.5 | 78.7 to 86.2 |  |  | 
COc1ccccc1NC(=O)Nc1cnc(Nc2ccc(N3CCOCC3)cc2)nc1Oc1ccc(C)cc1OC | 33.8 to 33.9 | 35.9 to 36.2 | 5.48 | 82.2 to 82.9 | 54.2 to 56 | 97.2 to 97.4 |  |  | 
COc1cc(C)ccc1Oc1nc(Nc2ccc(N3CCOCC3)cc2)ncc1NCc1ccc(OC(F)(F)F)cc1 | 43.7 to 45.1 | 21.3 to 22.5 | 3.3 | 59.5 to 61.6 | 45 to 47.1 | 84.9 to 85.4 |  |  | 
COc1cc(C)ccc1Oc1nc(Nc2ccc(N3CCOCC3)cc2)ncc1NC(=O)Nc1c(Cl)cccc1Cl | 58.3 to 62.7 | 34.8 to 38.1 | 17.4 | 86.8 to 89.4 | 75.6 to 81.8 | 93.2 to 97.7 |  |  | 
COc1cc(C)ccc1Oc1nc(Nc2ccc(N3CCOCC3)cc2)ncc1NC(=O)Nc1cc(C(F)(F)F)cc(C(F)(F)F)c1 | 89.7 to 95.1 | 83.5 to 89.8 | > 100 | 96 to 98 | 91 to 91.3 | 95.3 to 99.2 |  |  | 
COc1cc(NC(=O)Nc2cnc(Nc3cc(OC)cc(OC)c3)nc2Oc2ccc(C)cc2OC)cc(OC)c1 | 77.3 to 82 | 60.4 to 61.1 | 41.4 | 101 to 106 | 90.1 to 95.8 | 103 to 108 |  |  | 
COc1cc(C)ccc1Oc1nc(Nc2ccc(N3CCOCC3)cc2)ncc1/N=C/c1ccc(Cl)cc1 | 10.6 | 16.8 | 0.054 | 19.1 | 14.7 | 38.2 |  | > 5 | > 6
COc1cc(C)ccc1Oc1nc(Nc2ccc(N3CCOCC3)cc2)ncc1NCc1ccc(Cl)cc1 | 7.08 to 7.66 | 2.49 to 2.9 | 0.312 | 20 to 20.2 | 11.2 to 11.3 | 43.1 to 46.1 |  |  | 
COc1cc(C)ccc1Oc1nc(Nc2ccc(N3CCOCC3)cc2)ncc1/N=C/c1cc(C(F)(F)F)cc(C(F)(F)F)c1 | 55.5 to 56.8 | 24.1 to 28.5 | 0.006 | 19.2 to 20.1 | 24.7 to 27.4 | 39.7 to 40.7 |  |  | 
COc1cc(Nc2ncc(NC(=O)c3cc(OC)cc(OC)c3)c(Oc3ccc(C)cc3OC)n2)cc(OC)c1 | 95.7 to 97.5 | 92.3 to 96.8 | > 100 | 99.6 to 102 | 100 to 101 | 98.3 to 103 |  |  | 
COc1cc(C)ccc1Oc1nc(Nc2ccc(N3CCOCC3)cc2)ncc1/N=C/c1ccccc1Cl | 11.3 to 11.5 | 6.29 to 7.37 | 0.225 | 26.9 to 29.3 | 13.4 to 15.1 | 42.5 to 42.8 |  | > 1 | > 1
COc1cc(OC)cc(C(=O)Nc2cnc(Nc3ccc(N4CCOCC4)cc3)nc2Oc2ccc(C)cc2OC)c1 | 46.5 to 47 | 39 to 39.6 | 10.3 | 86.7 to 89 | 67.3 to 72.8 | 99.1 to 99.3 |  |  | 
COc1cc(C)ccc1Oc1nc(Nc2ccc(N3CCOCC3)cc2)ncc1/N=C/c1cccc(OC(C)C)c1 | 19.8 to 20.8 | 12.4 to 16.2 | 0.039 | 27.6 to 29.2 | 20 to 24.3 | 37.5 to 37.9 |  | > 5 | > 6
COc1cc(C)ccc1Oc1nc(Nc2ccc(N3CCOCC3)cc2)ncc1NCc1cc(C(F)(F)F)cc(C(F)(F)F)c1 | 55.1 to 58.1 | 41.1 to 41.7 | 11.6 | 88.1 to 91.2 | 66.6 to 71 | 104 |  |  | 
COc1cc(C)ccc1Oc1nc(Nc2ccc(N3CCOCC3)cc2)ncc1NC(=O)Nc1cc(Cl)cc(Cl)c1 | 70.1 to 74.8 | 65.4 to 70 | > 100 | 90.9 to 97.7 | 80.2 to 80.7 | 98.6 to 101 |  |  | 
COc1cc(C)ccc1Oc1nc(Nc2ccc(N3CCOCC3)cc2)ncc1/N=C/c1cccc(Cl)c1 | 11.3 to 14.9 | 28.6 to 36.9 | 0.062 | 19.6 to 23.2 | 15.3 to 16.8 | 32.6 to 35.6 |  | > 1 | > 1
